Results: the supplement of paper PMC10307832

Tests used:
Experiment in all cases: relative viability (nuclei count vs DMSO), 5 days (fraction); higher = more cells survive
BEN = test system: BEN
How it was run: (§1)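 Medians of duplicate plates are given as relative viability. That measure is the nuclei count in treated wells divided by the count in vehicle wells. Counts were taken on 4× images of lung cancer cell lines in 1536-well plates, 5 days after pin-tool dosing the day after seeding with one drug alone or a fixed anchor-drug dose plus five library-drug doses (not always all listed) in √10 steps.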

CAL-12T = test system: CAL-12T
How it was run: as §1

COR-L23 = test system: COR-L23
How it was run: as §1

HCC-44 = test system: HCC-44
How it was run: as §1

LU99A = test system: LU99A
How it was run: as §1

LXF-289 = test system: LXF-289
How it was run: as §1

NCI-H1355 = test system: NCI-H1355
How it was run: as §1

NCI-H1437 = test system: NCI-H1437
How it was run: as §1

NCI-H1650 = test system: NCI-H1650
How it was run: as §1

NCI-H1651 = test system: NCI-H1651
How it was run: as §1

NCI-H1666 = test system: NCI-H1666
How it was run: as §1

NCI-H1755 = test system: NCI-H1755
How it was run: as §1

NCI-H1993 = test system: NCI-H1993
How it was run: as §1

NCI-H2085 = test system: NCI-H2085
How it was run: as §1

NCI-H2087 = test system: NCI-H2087
How it was run: as §1

NCI-H2170 = test system: NCI-H2170
How it was run: as §1

NCI-H460 = test system: NCI-H460
How it was run: as §1

NCI-H520 = test system: NCI-H520
How it was run: as §1

PC-14 = test system: PC-14
How it was run: as §1

SK-MES-1 = test system: SK-MES-1
How it was run: as §1

Cc1csc(=NC2CCCCC2)n1/N=C/c1ccc(O)c(O)c1O [MIM1] + Cc1cc(Nc2cc(N3CCN(C)CC3)nc(Sc3ccc(NC(=O)C4CC4)cc3)n2)n[nH]1 [Tozasertib] (partner 0.1 µM)
relative viability (BEN; first compound 0.2 µM): 0.549 | relative viability (BEN; first compound 0.6325 µM): 0.438 | relative viability (BEN; first compound 2 µM): 0.498 | relative viability (BEN; first compound 6.325 µM): 0.482 | relative viability (BEN; first compound 20 µM): 0.346 | relative viability (CAL-12T; first compound 0.2 µM): 0.244 | relative viability (CAL-12T; first compound 0.6325 µM): 0.254 | relative viability (CAL-12T; first compound 2 µM): 0.303 | relative viability (CAL-12T; first compound 6.325 µM): 0.206 | relative viability (CAL-12T; first compound 20 µM): 0.204 | relative viability (COR-L23; first compound 0.2 µM): 0.184 | relative viability (COR-L23; first compound 0.6325 µM): 0.218 | relative viability (COR-L23; first compound 2 µM): 0.182 | relative viability (COR-L23; first compound 6.325 µM): 0.146 | relative viability (COR-L23; first compound 20 µM): 0.152 | relative viability (HCC-44; first compound 0.2 µM): 0.962 | relative viability (HCC-44; first compound 0.6325 µM): 1.1 | relative viability (HCC-44; first compound 2 µM): 0.387 | relative viability (HCC-44; first compound 6.325 µM): 0.584 | relative viability (HCC-44; first compound 20 µM): 0.184 | relative viability (LU99A; first compound 0.2 µM): 0.286 | relative viability (LU99A; first compound 0.6325 µM): 0.274 | relative viability (LU99A; first compound 2 µM): 0.288 | relative viability (LU99A; first compound 6.325 µM): 0.219 | relative viability (LU99A; first compound 20 µM): 0.177 | relative viability (LXF-289; first compound 0.2 µM): 0.167 | relative viability (LXF-289; first compound 0.6325 µM): 0.217 | relative viability (LXF-289; first compound 2 µM): 0.198 | relative viability (LXF-289; first compound 6.325 µM): 0.181 | relative viability (LXF-289; first compound 20 µM): 0.117 | relative viability (NCI-H1355; first compound 0.2 µM): 0.588 | relative viability (NCI-H1355; first compound 0.6325 µM): 0.557 | relative viability (NCI-H1355; first compound 2 µM): 0.519 | relative viability (NCI-H1355; first compound 6.325 µM): 0.464 | relative viability (NCI-H1355; first compound 20 µM): 0.3 | relative viability (NCI-H1437; first compound 0.2 µM): 0.395 | relative viability (NCI-H1437; first compound 0.6325 µM): 0.434 | relative viability (NCI-H1437; first compound 2 µM): 0.437 | relative viability (NCI-H1437; first compound 6.325 µM): 0.346 | relative viability (NCI-H1437; first compound 20 µM): 0.197 | relative viability (NCI-H1650; first compound 0.2 µM): 0.529 | relative viability (NCI-H1650; first compound 0.6325 µM): 0.411 | relative viability (NCI-H1650; first compound 2 µM): 0.282 | relative viability (NCI-H1650; first compound 6.325 µM): 0.322 | relative viability (NCI-H1650; first compound 20 µM): 0.133 | relative viability (NCI-H1651; first compound 0.2 µM): 0.601 | relative viability (NCI-H1651; first compound 0.6325 µM): 0.689 | relative viability (NCI-H1651; first compound 2 µM): 0.565 | relative viability (NCI-H1651; first compound 6.325 µM): 0.607 | relative viability (NCI-H1651; first compound 20 µM): 0.503 | relative viability (NCI-H1666; first compound 0.2 µM): 0.618 | relative viability (NCI-H1666; first compound 0.6325 µM): 0.625 | relative viability (NCI-H1666; first compound 2 µM): 0.575 | relative viability (NCI-H1666; first compound 6.325 µM): 0.47 | relative viability (NCI-H1666; first compound 20 µM): 0.446 | relative viability (NCI-H1755; first compound 0.2 µM): 0.606 | relative viability (NCI-H1755; first compound 0.6325 µM): 0.629 | relative viability (NCI-H1755; first compound 2 µM): 0.563 | relative viability (NCI-H1755; first compound 6.325 µM): 0.477 | relative viability (NCI-H1755; first compound 20 µM): 0.266 | relative viability (NCI-H1993; first compound 0.2 µM): 0.57 | relative viability (NCI-H1993; first compound 0.6325 µM): 0.538 | relative viability (NCI-H1993; first compound 2 µM): 0.539 | relative viability (NCI-H1993; first compound 6.325 µM): 0.518 | relative viability (NCI-H1993; first compound 20 µM): 0.433 | relative viability (NCI-H2085; first compound 0.2 µM): 0.781 | relative viability (NCI-H2085; first compound 0.6325 µM): 0.755 | relative viability (NCI-H2085; first compound 2 µM): 0.763 | relative viability (NCI-H2085; first compound 6.325 µM): 0.598 | relative viability (NCI-H2085; first compound 20 µM): 0.533 | relative viability (NCI-H2087; first compound 0.2 µM): 0.26 | relative viability (NCI-H2087; first compound 0.6325 µM): 0.284 | relative viability (NCI-H2087; first compound 2 µM): 0.249 | relative viability (NCI-H2087; first compound 6.325 µM): 0.22 | relative viability (NCI-H2087; first compound 20 µM): 0.2 | relative viability (NCI-H2170; first compound 0.2 µM): 0.706 | relative viability (NCI-H2170; first compound 0.6325 µM): 0.721 | relative viability (NCI-H2170; first compound 2 µM): 0.62 | relative viability (NCI-H2170; first compound 6.325 µM): 0.478 | relative viability (NCI-H2170; first compound 20 µM): 0.206 | relative viability (NCI-H460; first compound 0.2 µM): 0.447 | relative viability (NCI-H460; first compound 0.6325 µM): 0.499 | relative viability (NCI-H460; first compound 2 µM): 0.149 | relative viability (NCI-H460; first compound 20 µM): 0.0359 | relative viability (NCI-H520; first compound 0.2 µM): 0.55 | relative viability (NCI-H520; first compound 0.6325 µM): 0.419 | relative viability (NCI-H520; first compound 2 µM): 0.463 | relative viability (NCI-H520; first compound 6.325 µM): 0.428 | relative viability (NCI-H520; first compound 20 µM): 0.375 | relative viability (PC-14; first compound 0.2 µM): 0.526 | relative viability (PC-14; first compound 0.6325 µM): 0.593 | relative viability (PC-14; first compound 2 µM): 0.413 | relative viability (PC-14; first compound 6.325 µM): 0.502 | relative viability (PC-14; first compound 20 µM): 0.357 | relative viability (SK-MES-1; first compound 0.2 µM): 0.909 | relative viability (SK-MES-1; first compound 0.6325 µM): 0.848 | relative viability (SK-MES-1; first compound 2 µM): 0.742 | relative viability (SK-MES-1; first compound 6.325 µM): 0.643 | relative viability (SK-MES-1; first compound 20 µM): 0.492
